Where a name gives a salt, the structure may show the parent alone.
What was measured:
ERK1 = biological target: T1, ERK1 (Homo sapiens, UniProt P27361); test: ERK1 HTRF (biochemical) assay
T1 construct: purchased Jubilant Biosys
Experimental: ERK1 and ERK2 HTRF (Biochemical) Assays
These assays employed a homogeneous time resolved fluorescence (HTRF) technique. […] The plate was incubated at room temperature for 60 min with shaking. […] The IC50 values (half maximal inhibitory concentration values) were subsequently determined using a sigmoidal dose-response curve (variable slope) in GraphPad Prism® 5 software.

ERK2 = biological target: T2, ERK2 (Homo sapiens, UniProt P28482); test: ERK2 HTRF (biochemical) assay
T2 construct: purchased Jubilant Biosys
T2 sequence (P28482 whole entry): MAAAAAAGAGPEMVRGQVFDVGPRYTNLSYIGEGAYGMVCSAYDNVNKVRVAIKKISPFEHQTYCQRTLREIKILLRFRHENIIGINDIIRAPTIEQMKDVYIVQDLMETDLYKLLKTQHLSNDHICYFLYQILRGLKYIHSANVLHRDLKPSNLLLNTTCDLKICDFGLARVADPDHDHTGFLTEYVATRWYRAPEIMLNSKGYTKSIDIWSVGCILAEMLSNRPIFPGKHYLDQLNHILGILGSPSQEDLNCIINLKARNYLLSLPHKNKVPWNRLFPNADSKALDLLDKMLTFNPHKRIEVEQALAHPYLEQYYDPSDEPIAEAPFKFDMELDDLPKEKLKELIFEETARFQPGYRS
Outline: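 Compounds were tested as half-log dilutions from 0.0005 to 10 uM in Tris pH 7.5/MgCl2 buffer, with a substrate mix of 1 uM biotin-MBP peptide and 24 uM ATP and an enzyme mix of 25 nM ERK2. Reaction ran 60 min at room temperature. Phospho-MBP was detected by HTRF (Eu-anti-phospho-MBP/SA-APC, 665/620 nm), and IC50 was fitted with a variable-slope sigmoidal curve.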

T1 sequence (P27361 whole entry): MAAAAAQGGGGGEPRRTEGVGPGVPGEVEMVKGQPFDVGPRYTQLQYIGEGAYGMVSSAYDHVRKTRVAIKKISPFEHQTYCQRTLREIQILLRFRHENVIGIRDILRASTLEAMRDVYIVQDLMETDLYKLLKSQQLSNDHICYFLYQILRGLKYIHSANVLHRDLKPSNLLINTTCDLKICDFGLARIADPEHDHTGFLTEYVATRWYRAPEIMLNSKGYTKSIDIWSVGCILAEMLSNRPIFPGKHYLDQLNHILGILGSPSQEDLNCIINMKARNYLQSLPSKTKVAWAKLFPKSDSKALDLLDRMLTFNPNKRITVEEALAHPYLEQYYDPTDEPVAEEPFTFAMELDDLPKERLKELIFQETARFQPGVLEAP

Row | SMILES | IC50 (ERK1; HTRF) | IC50 (ERK2; HTRF) | IC50 (ERK1; HTRF biochemical assay) | IC50 (ERK2; HTRF biochemical assay)
1 | Cc1cn(-c2ccnc(Nc3ccc(F)cc3)n2)cc1C(=O)NC(CO)c1cccc(Cl)c1 (stereo not drawn) [Compound 110, N-(1-(3-chloro-phenyl)-2-hydroxyethyl)-1-(2-((4-fluorophenyl)-amino)pyrimidin-4-yl)-4-methyl-1H-pyrrole-3-carboxamide] | 0.05 to 0.1 µM | ≤ 0.05 µM | – | –
2 | Cc1cnc(Nc2ccc(F)cc2Cl)nc1-n1ccc(C(=O)NC(COC(=O)C(N)CC(C)C)c2ccccc2)c1 (stereo not drawn) [Compound 150, 2-(1-(2-((2-chloro-4-fluorophenyl)-amino)-5-methyl-pyrimidin-4-yl)-1H-pyrrole-3-carboxamido)-2-phenylethyl 2-amino-4-methyl-pentanoate] | 0.1 to 0.5 µM | ≤ 0.05 µM | – | –
3 | CNC[C@@H](NC(=O)c1cn(-c2nc(NC3CCOCC3)ncc2C)cn1)c1cccc(Cl)c1 [Example 326, (S)-N-(1-(3-chlorophenyl)-2-(methylamino)ethyl)-1-(5-methyl-2-((tetrahydro-2H-pyran-4-yl)amino)-pyrimidin-4-yl)-1H-imidazole-4-carboxamide] | – | – | < 0.05 µM | ≤ 0.05 µM
4 | Cc1cnc(Nc2ccc3c(c2)OC(F)(F)O3)cc1-n1cnc(C(=O)NC(CN)Cc2ccccc2)c1 (stereo not drawn) [Compound 99, N-(1-amino-3-phenylpropan-2-yl)-1-(2-((2,2-difluorobenzo[d] [1,3]dioxol-5-yl)amino)-5-methylpyridin-4-yl)-1H-imidazole-4-carboxamide] | 0.1 to 0.5 µM | 0.1 to 0.5 µM | – | –
5 | CCNc1ncc(C)c(-n2ccc(C(=O)NC(CO)c3ccccc3)c2)n1 (stereo not drawn) [Compound 130, 1-(2-(ethylamino)-5-methylpyrimidin-4-yl)-N-(2-hydroxy-1-phenylethyl)-1H-pyrrole-3-carboxamide] | 0.1 to 0.5 µM | 0.1 to 0.5 µM | – | –
6 | COc1cc(Nc2ncc(C)c(-n3ccc(C(=O)NC(CO)c4ccccc4)c3)n2)cc(OC)c1OC (stereo not drawn) [Compound 121, N-(2-hydroxy-1-phenylethyl)-1-(5-methyl-2-((3,4,5-trimethoxyphenyl)amino)pyrimidin-4-yl)-1H-pyrrole-3-carboxamide] | < 0.05 µM | ≤ 0.05 µM | – | –
7 | Cc1cnc(NC2CCOCC2)nc1-n1cnc(C(=O)NC(C(N)=O)c2cccc(Cl)c2)c1 (stereo not drawn) [Example 312, N-(2-amino-1-(3-chlorophenyl)-2-oxoethyl)-1-(5-methyl-2-((tetrahydro-2H-pyran-4-yl)amino)-pyrimidin-4-yl)-1H-imidazole-4-carboxamide] | – | – | < 0.05 µM | ≤ 0.05 µM
8 | Cc1cnc(Nc2ccc3c(c2)OCO3)nc1-n1cc(NC(=O)N[C@H](CO)c2cccc(Cl)c2)cn1 [Compound 44, (S)-1-(1-(2-(benzo[d][1,3]dioxol-5-ylamino)-5-methylpyrimidin-4-yl)-1H-pyrazol-4-yl)-3-(1-(3-chloro-phenyl)-2-hydroxy-ethyl)urea] | 0.05 to 0.1 µM | ≤ 0.05 µM | – | –
9 | Cc1cnc(Nc2ccnn2C)nc1-n1cnc(C(=O)N[C@H](CO)c2cccc(Cl)c2)c1 [Example 277, (S)-N-(1-(3-chlorophenyl)-2-hydroxyethyl)-1-(5-methyl-2-((1-methyl-1H-pyrazol-5-yl)amino)-pyrimidin-4-yl)-1H-imidazole-4-carboxamide] | < 0.05 µM | ≤ 0.05 µM | – | –
10 | O=C(Nc1cnn(-c2nc(NC3CC3)ncc2F)c1)N[C@H](CO)c1cccc(Cl)c1 [Compound 30, (S)-1-(1-(3-chlorophenyl)-2-hydroxyethyl)-3-(1-(2-(cyclopropyl-amino)-5-fluoro-pyrimidin-4-yl)-1H-pyrazol-4-yl)urea] | < 0.05 µM | ≤ 0.05 µM | – | –
11 | COc1cnc(Nc2ccc(F)cc2Cl)nc1-n1ccc(C(=O)NC(CO)c2ccccc2)c1 (stereo not drawn) [Compound 129, 1-(2-((2-chloro-4-fluorophenyl)amino)-5-methoxy-pyrimidin-4-yl)-N-(2-hydroxy-1-phenylethyl)-1H-pyrrole-3-carboxamide] | < 0.05 µM | ≤ 0.05 µM | – | –
12 | Cc1cnc(Nc2ccc3c(c2)OC(F)(F)O3)cc1-n1cnc(C(=O)NC(CO)c2cccc(Cl)c2)c1 (stereo not drawn) [Compound 90, N-(1-(3-chlorophenyl)-2-hydroxyethyl)-1-(2-((2,2-difluoro-benzo[d][1,3]dioxol-5-yl)amino)-5-methylpyridin-4-yl)-1H-imidazole-4-carboxamide] | 0.1 to 0.5 µM | ≤ 0.05 µM | – | –
13 | COc1ccc(Nc2ncc(C)c(-n3ccc(C(=O)NC(CO)c4ccccc4)c3)n2)cc1OCCN1CCN(C)CC1 (stereo not drawn) [Compound 148, N-(2-hydroxy-1-phenylethyl)-1-(2-((4-methoxy-3-(2-(4-methylpiperazin-1-yl)ethoxy)-phenyl)amino)-5-methylpyrimidin-4-yl)-1H-pyrrole-3-carboxamide] | < 0.05 µM | ≤ 0.05 µM | – | –
14 | Cc1cnc(Nc2ccc3c(c2)CCO3)nc1-n1ccc(C(=O)NC(CO)c2cccc(Cl)c2)c1 (stereo not drawn) [Compound 137, N-(1-(3-chloro-phenyl)-2-hydroxyethyl)-1-(2-((2,3-dihydro-benzofuran-5-yl)-mino)-5-methyl-pyrimidin-4-yl)-1H-pyrrole-3-carboxamide] | < 0.05 µM | ≤ 0.05 µM | – | –
15 | Cc1cnc(Nc2ccc3c(c2)OC(F)(F)O3)nc1-n1cnc(C(=O)NCc2cccc(Cl)c2CO)c1 [Example 332, N-(3-chloro-2-(hydroxymethyl)-benzyl)-1-(2-((2,2-difluorobenzo[d] [1,3]dioxol-5-yl)amino)-5-methylpyrimidin-4-yl)-1H-imidazole-4-carboxamide] | – | – | < 0.05 µM | ≤ 0.05 µM
16 | Cc1cnc(NC2CCOCC2)nc1-n1cnc(C(=O)NCc2cccc(Cl)c2CCO)c1 [Example 334, N-(3-chloro-2-hydroxyethylbenzyl)-1-(5-methyl-2-((tetrahydro-2H-pyran-4-yl)amino)-pyrimidin-4-yl)-1H-imidazole-4-carboxamide] | – | – | < 0.05 µM | ≤ 0.05 µM
17 | O=C(Nc1cnn(-c2ccnc(Nc3ccccc3Cl)n2)c1)N[C@@H](CO)c1ccccc1 [Compound 4, (R)-1-(1-(2-((2-chlorophenyl)amino)pyrimidin-4-yl)-1H-pyrazol-4-yl)-3-(2-hydroxy-1-phenylethyl)urea] | > 2.5 µM | > 2.5 µM | – | –
18 | Cc1cn(-c2ccnc(Nc3ccccc3)c2)cc1C(=O)N[C@H](CO)c1cccc(Cl)c1 [Compound 183, (S)-N-(1-(3-chlorophenyl)-2-hydroxyethyl)-4-methyl-1-(2-(phenylamino)pyridin-4-yl)-1H-pyrrole-3-carboxamide] | 0.05 to 0.1 µM | ≤ 0.05 µM | – | –
19 | Cc1cnc(Nc2ccc(F)cc2Cl)cc1-n1cnc(C(=O)NC(CO)c2ccccc2)c1 (stereo not drawn) [Compound 85, 1-(2-((2-chloro-4-fluorophenyl)amino)-5-methylpyridin-4-yl)-N-(2-hydroxy-1-phenylethyl)-1H-imidazole-4-carboxamide] | 0.1 to 0.5 µM | 0.1 to 0.5 µM | – | –

The remaining lines, values ahead:

Row | IC50 (ERK1; HTRF) | IC50 (ERK2; HTRF) | IC50 (ERK1; HTRF biochemical assay) | IC50 (ERK2; HTRF biochemical assay) | SMILES
20 | < 0.05 µM | ≤ 0.05 µM | – | – | Cc1cnc(NC2CCOCC2)nc1-n1cnc(C(=O)NCc2nccs2)c1 [Example 281, 1-(5-methyl-2-((tetrahydro-2H-pyran-4-yl)amino)-pyrimidin-4-yl)-N-(thiazol-2-ylmethyl)-1H-imidazole-4-carboxamide]
21 | < 0.05 µM | ≤ 0.05 µM | – | – | Cc1cnc(Nc2ccc3[nH]cc(C4=CCNCC4)c3c2)nc1-n1ccc(C(=O)NC(CO)c2cccc(Cl)c2)c1 (stereo not drawn) [Compound 209, N-(1-(3-chlorophenyl)-2-hydroxyethyl)-1-(5-methyl-2-((3-(1,2,3,6-tetrahydro-pyridin-4-yl)-1H-indol-5-yl)amino)-pyrimidin-4-yl)-1H-pyrrole-3-carboxamide hydrochloride]
22 | < 0.05 µM | ≤ 0.05 µM | – | – | Cc1cnc(Nc2ccc3c(c2)OCO3)nc1-n1ccc(C(=O)NC(CO)c2cc(Cl)cc(Cl)c2)c1 (stereo not drawn) [Compound 58, 1-(2-(benzo[d][1,3]dioxol-5-ylamino)-5-methylpyrimidin-4-yl)-N-(1-(3,5-dichlorophenyl)-2-hydroxyethyl)-1H-pyrrole-3-carboxamide]
23 | < 0.05 µM | 0.05 to 0.1 µM | – | – | Cc1cnc(NCC2CCCO2)nc1-n1ccc(C(=O)N[C@H](CO)c2cccc(Cl)c2)c1 (stereo partly drawn) [Compound 190, N-((S)-1-(3-chlorophenyl)-2-hydroxyethyl)-1-(5-methyl-2-(((tetrahydrofuran-2-yl)methyl)-amino)pyrimidin-4-yl)-1H-pyrrole-3-carboxamide]
24 | < 0.05 µM | ≤ 0.05 µM | – | – | O=C(N[C@H](CO)c1cccc(Cl)c1)c1cn(-c2ccnc(NC3CC3)c2)cn1 [Compound 116, (S)-N-(1-(3-chlorophenyl)-2-hydroxyethyl)-1-(2-(cyclopropylamino)pyridin-4-yl)-1H-imidazole-4-carboxamide]
25 | < 0.05 µM | ≤ 0.05 µM | – | – | Cc1cnc(NC2CCOCC2)nc1-n1cnc(C(=O)N[C@H](CO)c2cc(F)cc(Cl)c2)c1 [Example 295, (S)-N-(1-(3-chloro-5-fluorophenyl)-2-hydroxyethyl)-1-(5-methyl-2-((tetrahydro-2H-pyran-4-yl)amino)-pyrimidin-4-yl)-1H-imidazole-4-carboxamide]
26 | < 0.05 µM | ≤ 0.05 µM | – | – | Cc1ccc(C(CO)NC(=O)c2cn(-c3nc(NC4CCOCC4)ncc3C)cn2)s1 (stereo not drawn) [Example 261, N-(2-hydroxy-1-(5-methylthiophen-2-yl)ethyl)-1-(5-methyl-2-((tetrahydro-2H-pyran-4-yl)amino)-pyrimidin-4-yl)-1H-imidazole-4-carboxamide]
27 | < 0.05 µM | ≤ 0.05 µM | – | – | Cc1cnc(Nc2ccc3c(c2)OCO3)nc1-n1ccc(C(=O)NC(CO)c2cccc(Cl)c2)c1 (stereo not drawn) [Compound 42, 1-(2-(benzo[d][1,3]dioxol-5-ylamino)-5-methylpyrimidin-4-yl)-N-(1-(3-chloro-phenyl)-2-hydroxy-ethyl)-1H-pyrrole-3-carboxamide]

Reference: patent publication US9896445B2, “Heterocyclic inhibitors of ERK1 and ERK2 and their use in the treatment of cancer” (Asana Biosciences, LLC, priority 2015, dated 2018)
